Experimental data reported in ChEMBL document CHEMBL1124960, “Histamine H3 ligands: just pharmacological tools or potential therapeutic agents?” (J Med Chem, 1990).

Columns and labels:
[1] = molecular target: Histamine H2 receptor (Cavia porcellus) (UniProt P47747); assay: Evaluated for activity against histamine H2 receptor in guinea pig gastric secretion and represented as alpha; assay type: tissue-based; conditions: Stomach
[2] = molecular target: Histamine H2 receptor (Cavia porcellus) (UniProt P47747); assay: Evaluated for activity against histamine H2 receptor in guinea pig gastric secretion and represented as pD2; assay type: tissue-based; conditions: Stomach
[3] = molecular target: Histamine H2 receptor (Cavia porcellus) (UniProt P47747); assay: Evaluated for activity against histamine H2 receptor in guinea pig atrium and represented as alpha; assay type: tissue-based; conditions: Cardiac atrium
[4] = molecular target: Histamine H2 receptor (Cavia porcellus) (UniProt P47747); assay: Evaluated for activity against histamine H2 receptor in guinea pig atrium and represented as intrinsic activity; conditions: Cardiac atrium
[5] = molecular target: Histamine H3 receptor (Rattus norvegicus) (UniProt Q9QYN8); assay: Evaluated for activity against H3 receptor and represented as %recovery histamine release at a concentration 5 x 10 E -6M.
Target sequence in this assay (Q9QYN8 whole entry, looked up): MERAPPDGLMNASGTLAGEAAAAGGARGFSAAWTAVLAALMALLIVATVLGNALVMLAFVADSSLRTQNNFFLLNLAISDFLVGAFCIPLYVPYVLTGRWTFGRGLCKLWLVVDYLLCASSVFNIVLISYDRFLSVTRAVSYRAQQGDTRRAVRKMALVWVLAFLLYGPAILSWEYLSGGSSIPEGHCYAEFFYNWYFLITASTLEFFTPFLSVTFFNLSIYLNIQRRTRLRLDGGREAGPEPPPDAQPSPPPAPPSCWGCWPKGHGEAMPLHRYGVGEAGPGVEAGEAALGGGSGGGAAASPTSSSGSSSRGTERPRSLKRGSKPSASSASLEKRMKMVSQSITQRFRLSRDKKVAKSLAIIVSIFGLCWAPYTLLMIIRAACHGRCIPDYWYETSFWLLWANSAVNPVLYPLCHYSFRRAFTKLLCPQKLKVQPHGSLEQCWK

[6] = molecular target: Histamine H2 receptor (Cavia porcellus) (UniProt P47747); assay: Evaluated for activity at Histamine H2 receptor in guinea pig ileum; assay type: tissue-based
[7] = molecular target: Histamine H1 receptor (Cavia porcellus) (UniProt P31389); assay: Evaluated for activity at Histamine H1 receptor in guinea pig ileum; assay type: tissue-based
[8] = species: Rattus norvegicus; assay: Relative inhibition of [3H]histamine release from pre-loaded slices of rat cerebral cortex; assay type: functional
[9] = molecular target: Histamine H3 receptor (Rattus norvegicus) (UniProt Q9QYN8); assay: Evaluated for antagonist activity against histamine H3 receptor and represented as KB; assay type: functional
Target sequence in this assay (Q9QYN8 whole entry): as the sequence (Q9QYN8 whole entry, looked up) above

[10] = molecular target: Histamine H3 receptor (Rattus norvegicus) (UniProt Q9QYN8); assay: Evaluated for activity against H3 receptor and represented as %recovery histamine release at a concentration 5 x 10 E -6M
Target sequence in this assay (Q9QYN8 whole entry, looked up): as above

[11] = molecular target: Histamine H3 receptor (Cavia porcellus) (UniProt Q9JI35); assay: (§1) Evaluated for antagonist activity against Histamine H3 receptor and represented as KB.; assay type: functional
[12] = species: Rattus norvegicus; assay: Histamine level after treatment was determined in colon.; assay type: functional
[13] = species: Rattus norvegicus; assay: Histamine level after treatment was determined in adbominal skin.; assay type: functional
[14] = species: Rattus norvegicus; assay: Histamine level after treatment was determined in cerebral cortex; assay type: functional
[15] = species: Rattus norvegicus; assay: Histamine level after treatment was determined in hypothalamus.; assay type: functional
[16] = species: Rattus norvegicus; assay: Histamine level after treatment was determined in spleen; assay type: functional
[17] = species: Rattus norvegicus; assay: Evaluated for inhibition of [3H]histamine release from preloaded slices and is represented as pD2; assay type: functional
[18] = molecular target: T1, Histamine H3 receptor (Rattus norvegicus, UniProt Q9QYN8); assay: as §1; assay type: functional
[19] = molecular target: Histamine H3 receptor (Rattus norvegicus) (UniProt Q9QYN8); assay: Evaluated for antagonist activity against histamine H3 receptor and represented as KB.; assay type: functional
Target sequence in this assay (Q9QYN8 whole entry): as the sequence (Q9QYN8 whole entry, looked up) above

[20] = molecular target: Histamine H2 receptor (Cavia porcellus) (UniProt P47747); assay: Evaluated for agonistic (intrinsic) activity at histamine H2 receptor of guinea pig atrium and is represented as intrinsic activity; assay type: functional, tissue-based; conditions: Cardiac atrium
[21] = molecular target: Histamine H2 receptor (Cavia porcellus) (UniProt P47747); assay: Evaluated for agonistic activity at histamine H2 receptor of guinea pig atrium and is represented as potency; assay type: functional, tissue-based; conditions: Cardiac atrium
[22] = molecular target: Histamine H2 receptor (Cavia porcellus, UniProt P47747); assay: Evaluated for activity against Histamine H2 receptor in guinea pig atrium and represented pA2; assay type: tissue-based, Cardiac atrium; conditions: read-out: pA2 (converted)
[23] = molecular target: Histamine H2 receptor (Cavia porcellus) (UniProt P47747); assay: Evaluated for activity against Histamine H2 receptor in guinea pig atrium and represented as alpha; assay type: tissue-based; conditions: Cardiac atrium
[24] = molecular target: Histamine H2 receptor (Cavia porcellus) (UniProt P47747); assay: Evaluated for their activity at histamine H2 receptor in guinea pig ileum.; assay type: tissue-based
[25] = molecular target: Histamine H1 receptor (Cavia porcellus) (UniProt P31389); assay: Evaluated for their activity at histamine H1 receptor in guinea pig ileum.; assay type: tissue-based
[26] = species: Rattus norvegicus; assay: Inhibition of [3H]histamine release from preloaded slices of rat cerebral cortex as pD2; assay type: functional
[27] = molecular target: Histamine H1 receptor (Cavia porcellus) (UniProt P31389); assay: Evaluated for agonistic activity at histamine H1 receptor of guinea pig ileum and is represented as potency.; assay type: functional, tissue-based
[28] = molecular target: Histamine H2 receptor (Cavia porcellus) (UniProt P47747); assay: Evaluated for agonistic activity at histamine H2 receptor of guinea pig atrium and is represented as intrinsic activity; assay type: functional, tissue-based; conditions: Cardiac atrium
[29] = molecular target: Histamine H1 receptor (Cavia porcellus) (UniProt P31389); assay: Evaluated for agonistic activity at histamine H1 receptor of guinea pig ileum and is represented as intrinsic activity; assay type: functional, tissue-based
[30] = molecular target: Histamine H2 receptor (Cavia porcellus) (UniProt P47747); assay: Evaluated for agonistic activity at histamine H2 receptor of guinea pig atrium and is represented as potency.; assay type: functional, tissue-based; conditions: Cardiac atrium
[31] = molecular target: T1, Histamine H3 receptor; assay: Evaluated for antagonistic activity at histamine H3 receptor in rat cerebral cortex and is represented as Ki.; assay type: functional, tissue-based
[32] = molecular target: Histamine H1 receptor (Cavia porcellus) (UniProt P31389); assay: Evaluated for agonistic activity at histamine H1 receptor of guinea pig ileum and is represented as potency; assay type: functional, tissue-based

T1 sequence (Q9QYN8 whole entry): as the sequence (Q9QYN8 whole entry, looked up) above
Histamine H2 receptor (Cavia porcellus), sequence (P47747 whole entry): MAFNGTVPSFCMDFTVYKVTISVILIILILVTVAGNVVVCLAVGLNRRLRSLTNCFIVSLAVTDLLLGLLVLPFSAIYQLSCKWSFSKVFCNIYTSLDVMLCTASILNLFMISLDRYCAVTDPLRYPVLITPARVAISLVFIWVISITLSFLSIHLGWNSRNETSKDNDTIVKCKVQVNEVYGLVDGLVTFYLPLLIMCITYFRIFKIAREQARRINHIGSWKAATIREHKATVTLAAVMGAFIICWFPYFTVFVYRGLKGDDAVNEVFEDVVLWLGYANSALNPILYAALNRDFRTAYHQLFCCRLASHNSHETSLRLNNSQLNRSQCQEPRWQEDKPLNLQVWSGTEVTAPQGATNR
Histamine H1 receptor (Cavia porcellus), sequence (P31389 whole entry): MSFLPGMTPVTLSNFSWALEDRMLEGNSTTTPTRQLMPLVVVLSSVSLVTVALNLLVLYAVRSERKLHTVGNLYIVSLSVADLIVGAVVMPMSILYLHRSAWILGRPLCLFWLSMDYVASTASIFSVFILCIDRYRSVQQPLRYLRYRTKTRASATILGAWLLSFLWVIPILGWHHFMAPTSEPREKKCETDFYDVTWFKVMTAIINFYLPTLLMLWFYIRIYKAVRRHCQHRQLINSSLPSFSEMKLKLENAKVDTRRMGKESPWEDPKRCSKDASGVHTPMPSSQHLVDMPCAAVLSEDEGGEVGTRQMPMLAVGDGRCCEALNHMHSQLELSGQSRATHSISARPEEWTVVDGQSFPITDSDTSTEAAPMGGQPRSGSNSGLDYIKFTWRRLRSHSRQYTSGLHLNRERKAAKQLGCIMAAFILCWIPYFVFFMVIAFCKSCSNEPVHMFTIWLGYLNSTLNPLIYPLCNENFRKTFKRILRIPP
Histamine H2 receptor, sequence (P47747 whole entry): as the sequence (P47747 whole entry) above
Histamine H3 receptor (Cavia porcellus), sequence (Q9JI35 whole entry): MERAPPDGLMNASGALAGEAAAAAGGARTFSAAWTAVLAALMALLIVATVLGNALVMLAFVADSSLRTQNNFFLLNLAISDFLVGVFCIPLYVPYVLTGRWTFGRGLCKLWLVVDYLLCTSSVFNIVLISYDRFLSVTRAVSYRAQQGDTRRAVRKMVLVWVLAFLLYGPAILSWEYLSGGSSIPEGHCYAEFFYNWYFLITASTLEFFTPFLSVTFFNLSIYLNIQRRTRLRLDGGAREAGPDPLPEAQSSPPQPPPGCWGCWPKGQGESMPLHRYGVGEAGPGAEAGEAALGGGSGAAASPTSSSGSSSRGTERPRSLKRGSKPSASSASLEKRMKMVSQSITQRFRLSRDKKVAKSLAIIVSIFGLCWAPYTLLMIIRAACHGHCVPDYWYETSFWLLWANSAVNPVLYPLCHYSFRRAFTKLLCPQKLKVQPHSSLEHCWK

## N=C(N)Nc1nc(CSCC/N=C(\N)NCCCc2c[nH]cn2)cs1
[1]
  pD2: 8.2
[2]
  pD2: 7.9
[3]
  Activity: 1
[4]
  intrinsic activity: 1
[5]
  Release: 100%

## CN(C)CCCSC(=N)N
[6]
  Activity: 71
[7]
  Activity: < 0.0001
[8]
  Ratio_EC50: <0.03

## CN(C)CC[C@@H](c1ccc(Cl)cc1)c1ccccn1
[9]
  KB: > 58 nM

## CC(C)Cc1ccc(CSCC/N=C(\N)NCCCc2c[nH]cn2)o1
[1]
  pD2: 8.5
[2]
  pD2: 7.8
[3]
  Activity: 0.9
[4]
  intrinsic activity: 0.9
[10]
  Release: 100%

## CNC(=C[N+](=O)[O-])NCCSCc1ccc(CN(C)C)o1
[11]
  KB: 1.2 µM

## C[C@@H](N)Cc1c[nH]cn1
[6]
  Activity: 1.02
[7]
  Activity: 0.49
[12]
  Histamine level: 81
[13]
  Histamine level: 65
[14]
  Histamine level: 68
[15]
  Histamine level: 85
[16]
  Histamine level: 69
[8]
  Ratio_EC50: 1550

## CC(C)NCCc1c[nH]cn1
[17]
  pD2: <5.5

## O=C(CCCCc1ccccc1)NCCc1cnc[nH]1
[18]
  Ki: 0.2 µM

## Cc1nc[nH]c1CCN [4-METHYLHISTAMINE]
[6]
  Activity: 43
[7]
  Activity: 0.23
[8]
  Ratio_EC50: <0.008

## CN/C(=N\CCSCc1nc[nH]c1C)NC#N
[19]
  KB: 33 µM

## Cc1nc[nH]c1CSCCN/C(N)=N/C(C)Cc1c[nH]cn1 (stereo not drawn)
[20]
  Activity: 0.8
[21]
  pD2: 6.48

## Cc1ncc(CCN)[nH]1 [2-METHYLHISTAMINE]
[6]
  Activity: 4.4
[7]
  Activity: 16.5
[8]
  Ratio_EC50: <0.008

## CSCC/N=C(\NC#N)NCCCc1c[nH]cn1 [VUF-8406]
[22]
  Kb: 0.0158 µM
[23]
  Activity: 0
[5]
  Release: 100%

## CN(C)CCc1cnc[nH]1
[24]
  Activity: 51
[25]
  Activity: 44
[26]
  pD2: 7.3
[8]
  Ratio_EC50: 170

## Cc1nc[nH]c1CSCCNC(=N)N[C@H](C)Cc1c[nH]cn1 [SOPROMIDINE]
[27]
  Potency: 1.7
[28]
  Activity: 1
[29]
  Activity: 0.2
[30]
  pD2: 6.92
[31]
  Ki: 0.06 µM

## O=C(CCCc1ccccc1)NCCc1cnc[nH]1
[18]
  Ki: 0.0794 µM

## C[C@H](N)Cc1c[nH]cn1
[6]
  Activity: 1.74
[7]
  Activity: 0.49
[8]
  Ratio_EC50: 13

## Cc1nc[nH]c1CSCCN/C(N)=N/[C@@H](C)Cc1c[nH]cn1
[32]
  Potency: 0
[20]
  Activity: 0
[29]
  Activity: 0
